Results published in PubChem BioAssay (NCI).
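Test compounds were applied to cells in 96-well plates for 48 hours at 5 doses. Definition used: TGI = concentration required for complete inhibition of growth.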

How the values were obtained:
Test in all cases: growth of human tumour cells (NCI), 48 h
HT29 colon = system: HT29 colon
ACHN renal = system: ACHN renal
UACC-62 melanoma = system: UACC-62 melanoma
HOP-92 NSCLC = system: HOP-92 NSCLC
COLO 205 colon = system: COLO 205 colon
U251 CNS = system: U251 CNS
SNB-75 CNS = system: SNB-75 CNS
CCRF-CEM leukemia = system: CCRF-CEM leukemia
KM12 colon = system: KM12 colon
MALME-3M melanoma = system: MALME-3M melanoma
MOLT-4 leukemia = system: MOLT-4 leukemia
UO-31 renal = system: UO-31 renal
MCF7 breast = system: MCF7 breast
RPMI-8226 leukemia = system: RPMI-8226 leukemia
PC-3 prostate = system: PC-3 prostate
HS 578T breast = system: HS 578T breast
K-562 leukemia = system: K-562 leukemia
SF-268 CNS = system: SF-268 CNS
A498 renal = system: A498 renal
HL-60(TB) leukemia = system: HL-60(TB) leukemia

Structure (SMILES) | TGI (HT29 colon) | TGI (ACHN renal) | TGI (UACC-62 melanoma) | TGI (HOP-92 NSCLC) | TGI (COLO 205 colon) | TGI (U251 CNS) | TGI (SNB-75 CNS) | TGI (CCRF-CEM leukemia) | TGI (KM12 colon) | TGI (MALME-3M melanoma) | TGI (MOLT-4 leukemia) | TGI (UO-31 renal) | TGI (MCF7 breast) | TGI (RPMI-8226 leukemia) | TGI (PC-3 prostate) | TGI (HS 578T breast) | TGI (K-562 leukemia) | TGI (SF-268 CNS) | TGI (A498 renal) | TGI (HL-60(TB) leukemia)
Fc1cccc(C2SCc3nc4cc5ccccc5cc4n32)c1 (centres undefined) | > 100 µM | > 100 µM | > 100 µM | > 100 µM | > 100 µM | > 100 µM | > 100 µM | > 100 µM | > 100 µM | > 100 µM | > 100 µM | > 100 µM | > 100 µM | > 100 µM | > 100 µM | > 100 µM | > 100 µM | > 100 µM |  | 
O=C(O)c1cccc(OCCOc2cccc(C(=O)O)c2[N+](=O)[O-])c1[N+](=O)[O-] | > 100 µM | > 100 µM | > 100 µM | > 100 µM | > 100 µM | > 100 µM | > 100 µM | > 100 µM | > 100 µM | > 100 µM | > 100 µM | > 100 µM | > 100 µM | > 100 µM | > 100 µM | > 100 µM |  | > 100 µM | > 100 µM | > 100 µM
Nc1nc(N)c2ncn(-c3ccccc3)c2n1 | > 100 µM | > 100 µM | > 100 µM | > 100 µM | > 100 µM | > 100 µM |  | > 100 µM | > 100 µM | > 100 µM | > 100 µM | > 100 µM | > 100 µM | > 100 µM | > 100 µM | > 100 µM |  | > 100 µM | > 100 µM | 
S=C(Nc1ccc2c(c1)oc1ccccc12)c1cccs1 | > 100 µM | > 100 µM | > 100 µM | > 100 µM | > 100 µM | > 100 µM |  | > 100 µM |  |  | > 100 µM | > 100 µM | > 100 µM |  | > 100 µM | > 100 µM |  | > 100 µM | > 100 µM | > 100 µM
O=C(Oc1c(Br)cc(Br)cc1C(=O)Oc1ccccc1)C(=O)Oc1c(Br)cc(Br)cc1C(=O)Oc1ccccc1 | > 100 µM | > 100 µM | > 100 µM | 38.4 µM | 51.8 µM | 40.6 µM |  |  | 84.1 µM | 59.2 µM | 55.1 µM | 49.7 µM | 60.8 µM | 52.9 µM | 69.6 µM | > 100 µM | 55.7 µM | > 100 µM |  | > 100 µM
CCOC(=O)C1=CNC(C(=O)OCC)C1c1cccn1-c1ccccc1 (centres undefined) | 50.5 µM | > 100 µM | > 100 µM | 56.8 µM | 68.2 µM | > 100 µM | 65.4 µM | 77 µM | 98.7 µM |  | 47.3 µM | > 100 µM | > 100 µM |  | 71.3 µM | > 100 µM | > 100 µM | > 100 µM | > 100 µM | 
Cc1ccc(SCC(CF)OC(C)n2cnc3c(Cl)nc(N)nc32)cc1 (centres undefined) | > 100 µM | > 100 µM | > 100 µM | > 100 µM | > 100 µM | > 100 µM | > 100 µM | > 100 µM | > 100 µM | > 100 µM | > 100 µM | > 100 µM | > 100 µM | > 100 µM | > 100 µM | > 100 µM |  | > 100 µM |  | 86.3 µM
COC(=O)[C@@H](OC(C)=O)[C@@H](OC(C)=O)c1nnc2ccc(Cl)nn12 | > 100 µM | > 100 µM | > 100 µM |  | > 100 µM | > 100 µM |  | > 100 µM | > 100 µM | > 100 µM | > 100 µM |  | > 100 µM | > 100 µM | > 100 µM | > 100 µM |  | > 100 µM | > 100 µM | > 100 µM
CC(Cc1cccc2c1Nc1ccccc1S2)N(C)CCO (centres undefined) | > 100 µM | > 100 µM | > 100 µM | > 100 µM | > 100 µM | > 100 µM |  | > 100 µM | > 100 µM | > 100 µM | > 100 µM | > 100 µM | > 100 µM |  | > 100 µM | > 100 µM | > 100 µM | > 100 µM | 93.9 µM | > 100 µM
CC(CNC(=O)c1ccccc1)(CNC(=O)c1ccccc1)[N+](=O)[O-] | > 100 µM | > 100 µM | > 100 µM | > 100 µM | > 100 µM | > 100 µM | > 100 µM |  | > 100 µM | > 100 µM | > 100 µM | > 100 µM | > 100 µM | > 100 µM | > 100 µM | > 100 µM | > 100 µM | > 100 µM |  | > 100 µM
Cc1cnc2c(c1)C(=O)N(c1ccc([N+](=O)[O-])cc1)S2(=O)=O | > 100 µM | > 100 µM | > 100 µM | > 100 µM | > 100 µM | > 100 µM | > 100 µM | > 100 µM | > 100 µM | 63.4 µM | > 100 µM | > 100 µM | > 100 µM | > 100 µM | > 100 µM | > 100 µM |  | > 100 µM | > 100 µM | > 100 µM
C(=N\NC1=NCCN1)/c1cccc2cc3ccncc3nc12 | 10.5 µM | 13.6 µM | 31.4 µM | 6.4 µM | 15.5 µM | 4 µM | 5.04 µM | 3.8 µM | 17.9 µM | 23.4 µM | 10.8 µM | 14.2 µM | 14.5 µM | 4.44 µM | 13.7 µM | 61.3 µM |  | 14.2 µM | 23.9 µM | 2.76 µM
O=C1CCN2C(=N1)Sc1ccccc12 | > 100 µM | > 100 µM | > 100 µM | > 100 µM | > 100 µM | > 100 µM | > 100 µM | > 100 µM | > 100 µM | > 100 µM | > 100 µM |  | > 100 µM | > 100 µM | > 100 µM | > 100 µM | > 100 µM | > 100 µM |  | > 100 µM
